Experimental data as given in the NIST ThermoML archive (doi:10.1007/s10765-006-0079-5).

Details: Liquid, Pulse-echo method

CCCCCCCCC [nonane]
speed of sound [m/s]
Details | 293.15 K | 313.15 K | 333.15 K | 353.15 K | 373.15 K | 393.15 K
100 kPa | 1226.4 | 1146.2 | 1068.2 | 992.62 | 922.16 | –
10000 kPa | 1288 | 1212.8 | 1140.9 | 1072.6 | 1005 | 946.87
20000 kPa | 1344.8 | 1274.2 | 1206.9 | 1142.6 | 1081.3 | 1022.9
30000 kPa | 1396.9 | 1329.8 | 1266.2 | 1205.6 | 1148.1 | 1093.7
40000 kPa | 1445.1 | 1380.9 | – | 1262.5 | 1208 | 1156.6
50000 kPa | 1490.1 | 1428.3 | 1369.8 | 1314.6 | 1262.5 | 1213.6
60000 kPa | 1532.5 | 1472.7 | 1416.3 | 1363.2 | 1313.1 | 1266.1
70000 kPa | 1572.5 | 1514.7 | 1460.1 | 1408.5 | 1360.1 | 1314.7
80000 kPa | 1610.6 | 1554.4 | 1501.3 | 1451.3 | 1404.3 | 1360.4
90000 kPa | 1646.9 | 1592 | 1540.3 | 1491.7 | 1446.1 | 1403.3
100000 kPa | 1681.6 | 1628 | 1577.4 | 1529.8 | 1485.5 | 1443.7
